According to ChEMBL document CHEMBL4330134, “Design, synthesis, and bioevaluation of a novel class of (E)-4-oxo-crotonamide derivatives as potent antituberculosis agents” (Bioorg Med Chem Lett, 2019):
In brackets after ≈: the same amount, converted by molar mass.

System: Mycobacterium tuberculosis
Assay: Antimycobacterial activity against Mycobacterium tuberculosis H37Rv ATCC 27294 after 4 days by microplate Alamar blue assay
Assay type: functional
Details: H37Rv ATCC 27294, 96 h

| Compound | MIC [µg/mL] |
| --- | --- |
| CCN(C)C(=O)/C=C/C(=O)c1ccccc1[N+](=O)[O-] | 0.24 (≈ 0.915 µM) |
| CCCN(CCC)C(=O)/C=C/C(=O)c1ccc(OCC)cc1 | 1.91 (≈ 6.3 µM) |
| CCN(C)C(=O)/C=C/C(=O)c1cccc(C(F)(F)F)c1 | > 2 |
| CCN(C)C(=O)/C=C/C(=O)c1cccc(OC)c1 | 1.88 (≈ 7.6 µM) |
| CCOc1ccc(C(=O)/C=C/C(=O)N(C)CC)cc1 | 0.48 (≈ 1.84 µM) |
| CN(C)C(=O)/C=C/C(=O)c1cccc(C(F)(F)F)c1 | 1.95 (≈ 7.19 µM) |
| CN(C)C(=O)/C=C/C(=O)c1cccc(F)c1 | 1.84 (≈ 8.32 µM) |
| CCN(C)C(=O)/C=C/C(=O)c1cccc(Br)c1 | 1.52 (≈ 5.13 µM) |
| CN(C)C(=O)/C=C/C(=O)c1ccccc1F | 0.95 (≈ 4.29 µM) |
| CN(C)C(=O)/C=C/C(=O)c1ccc(F)cc1 | 0.47 (≈ 2.12 µM) |
| CCOc1ccc(C(=O)/C=C/C(=O)N(C)C)cc1 | 0.48 (≈ 1.94 µM) |
| CCN(C)C(=O)/C=C/C(=O)c1ccc([N+](=O)[O-])cc1 | 1.7 (≈ 6.48 µM) |
| CCCN(CCC)C(=O)/C=C/C(=O)c1ccccc1F | 0.94 (≈ 3.39 µM) |
| CCCN(CCC)C(=O)/C=C/C(=O)c1ccccc1[N+](=O)[O-] | 1.24 (≈ 4.07 µM) |
| CN(C)C(=O)/C=C/C(=O)c1ccccc1[N+](=O)[O-] | 1.51 (≈ 6.08 µM) |
| CCN(C)C(=O)/C=C/C(=O)c1ccc(-c2ccccc2)cc1 | 0.49 (≈ 1.67 µM) |
| CCCN(CCC)C(=O)/C=C/C(=O)c1cccc(Cl)c1 | 1.91 (≈ 6.5 µM) |
| CCN(C)C(=O)/C=C/C(=O)c1ccc(Cl)cc1Cl | > 2 |
| CCN(C)C(=O)/C=C/C(=O)c1ccccc1F | 0.24 (≈ 1.02 µM) |
| CCN(C)C(=O)/C=C/C(=O)c1ccc(OC)cc1 | 0.93 (≈ 3.76 µM) |
| CCN(C)C(=O)/C=C/C(=O)c1cccc(Cl)c1 | 0.97 (≈ 3.85 µM) |
| CN(C)C(=O)/C=C/C(=O)c1ccc(Br)cc1 | 0.25 (≈ 0.886 µM) |
| CCCN(CCC)C(=O)/C=C/C(=O)c1cccc(F)c1 | 0.96 (≈ 3.46 µM) |
| CCCN(CCC)C(=O)/C=C/C(=O)c1cccc([N+](=O)[O-])c1 | > 2 |
| CCN(C)C(=O)/C=C/C(=O)c1ccccc1OC | 0.95 (≈ 3.84 µM) |
| CN(C)C(=O)/C=C/C(=O)c1ccc(Cl)cc1Cl | 0.41 (≈ 1.51 µM) |

| Compound | MIC [µg/mL] |
| --- | --- |
| CCN(C)C(=O)/C=C/C(=O)c1ccc(Cl)cc1 | 0.24 (≈ 0.953 µM) |
| CN(C)C(=O)/C=C/C(=O)c1ccc(Cl)c(Cl)c1 | 0.84 (≈ 3.09 µM) |
| CCCN(CCC)C(=O)/C=C/C(=O)c1ccc(OC)cc1 | 1.89 (≈ 6.53 µM) |
| CN(C)C(=O)/C=C/C(=O)c1cccc([N+](=O)[O-])c1 | > 2 |
| CN(C)C(=O)/C=C/C(=O)c1ccc2c(c1)OCO2 | 0.79 (≈ 3.2 µM) |
| CCCN(CCC)C(=O)/C=C/C(=O)c1ccc(Cl)c(Cl)c1 | 0.88 (≈ 2.68 µM) |
| CCCN(CCC)C(=O)/C=C/C(=O)c1ccc([N+](=O)[O-])cc1 | 1.89 (≈ 6.21 µM) |
| CCN(C)C(=O)/C=C/C(=O)c1ccc(Cl)c(Cl)c1 | 0.24 (≈ 0.839 µM) |
| CCN(C)C(=O)/C=C/C(=O)c1ccccc1Cl | 0.65 (≈ 2.58 µM) |
| CCN(C)C(=O)/C=C/C(=O)c1ccc(F)cc1 | 0.25 (≈ 1.06 µM) |
| CCN(C)C(=O)/C=C/C(=O)c1ccc2c(c1)OCO2 | > 2 |
| CCCN(CCC)C(=O)/C=C/C(=O)c1ccccc1OC | > 2 |
| CCCN(CCC)C(=O)/C=C/C(=O)c1ccc(F)cc1 | 0.95 (≈ 3.43 µM) |
| CCCN(CCC)C(=O)/C=C/C(=O)c1cccc(C(F)(F)F)c1 | > 2 |
| CN(C)C(=O)/C=C/C(=O)c1ccc([N+](=O)[O-])cc1 | 0.93 (≈ 3.75 µM) |
| CCN(C)C(=O)/C=C/C(=O)c1cccc([N+](=O)[O-])c1 | > 2 |
| CCCN(CCC)C(=O)/C=C/C(=O)c1ccc(Cl)cc1 | 1.67 (≈ 5.68 µM) |
| CCCN(CCC)C(=O)/C=C/C(=O)c1ccc(Cl)cc1Cl | > 2 |
| CCCN(CCC)C(=O)/C=C/C(=O)c1ccc(-c2ccccc2)cc1 | 1.4 (≈ 4.17 µM) |
| CCCN(CCC)C(=O)/C=C/C(=O)c1cccc(OC)c1 | > 2 |
| CCCN(CCC)C(=O)/C=C/C(=O)c1ccccc1Cl | > 2 |
| CN(C)C(=O)/C=C/C(=O)c1ccc(Cl)cc1 | 0.38 (≈ 1.6 µM) |
| CN(C)C(=O)/C=C/C(=O)c1cccc(Cl)c1 | 0.89 (≈ 3.74 µM) |
| CCN(C)C(=O)/C=C/C(=O)c1cccc(F)c1 | 0.48 (≈ 2.04 µM) |
| CCCN(CCC)C(=O)/C=C/C(=O)c1cccc(Br)c1 | > 2 |
| CCCN(CCC)C(=O)/C=C/C(=O)c1ccc2c(c1)OCO2 | > 2 |
